Measurements from patent US20070117182A1, “Nucleic acids conferring transcriptional responsiveness on the RANKL gene promoter and uses thereof” (Wisconsin Alumni Research Foundation, priority 2005, published 2007).

Experiments:
Assay type in all cases: cell-based, mouse
RANKL = test: RT-PCR of RANKL transcripts in treated ST2 cells; conditions: treated up to 24 hours, agent alone, vs beta-actin controls
Description: FIG. 2. Induction of RANKL in ST2 cells by hormones and cytokines. ST2 cells were treated with the agents indicated for periods up to 24 hours. Total RNA was isolated and subjected to RT-PCR using a primer set to mouse RANKL and beta-actin. Positive vitamin D target control genes include Cyp24 and osteopontin (OPN).
The inventors first established a model in which RANKL is both induced in response to 1,25(OH)2D3, PTH (forskolin) and oncostatin M (OSM), and is capable of supporting osteoclast formation when co-cultured with bone marrow monocyte- or spleen cell-derived osteoclast precursors. While a number of cell types express RANKL and induce osteoclastogenesis, the historical literature strongly supports mouse ST2 cells in this capacity, prompting the inventors to focus on this stromal/preosteoblastic line for initial studies. […] Each of these components is known to both induce RANKL expression and promote osteoclast formation as well. […] Indeed, GC effects are widely observed. […] The ability of GCs to enhance osteoclast formation in coculture assays in the presence of 1,25(OH)2D3, however, is likely due also to its coordinate ability to suppress OPG.

[1] = system: D5 region of the RANKL gene (RL-CCL); test: pTK-RL(D5) luciferase reporter in ST2 cells; conditions: 24 hours; for luciferase activity via D5 (RL-CCL), TK promoter: agent alone
Description: FIG. 6. Transcriptional activity of the D5 regions of the RANKL gene in the context of the TK promoter. Sequence surrounding the D5 region (1072 bp) was cloned into the pTK-luciferase vector and termed pTK-RL(D5). […] Cells were harvested after 24 hours and luciferase activity assessed. B) ST2 cells were transfected as in A above but without the VDR expression vector and evaluated as in A. C) COS-7 cells were transfected and evaluated as in A above. Luciferase was normalized using beta-gal activity. Data represent the mean of triplicate determinations (SEM). The pTK-luc control vector was unresponsive to any of the inducers (see FIG. 9). *, p<0.05 vs no treatment control.
FIG. 11. […] A) Coordinates of the RL-D5 and the RL-D5b regions in the mouse RANKL upstream region. ST2 cells were transfected with either B) pTK-luc or pTK-mRL-D5 or C) pTK-luc and pTK-mRL-D5b and then treated with the indicated inducers. Cells were harvested after 24 hours and evaluated for luciferase activity. Luciferase was normalized using β-gal activity. Data represent the mean of triplicate determinations (SEM). *, p<0.05 vs no treatment control. **, p<0.05 vs no treatment and 1,25(OH)2D3 treated controls.
The activity of an enhancer must be evaluated in the context of its local environment, preferentially in the context of both other enhancers and its native promoter. In the case of the RANKL gene, however, this is clearly not possible due to the numbers and the distant locations of the potential regulatory regions. To tackle this problem, the inventors isolated approximately 800 to 1100 bp fragments of each region (D1 to D5) as identified through the ChIP/Chip analysis, cloned each into a luciferase expression vector under the control of a viral thymidine kinase (TK) minimal promoter, and explored the 1,25(OH)2D3- and GC-inducible activity of each following transfection into ST2 cells. […] Nevertheless, positive results provide added support for the potential regulatory capabilities of an individual DNA fragment even when examined in isolation. […] This induction was magnified by the addition of a VDR expression vector (FIG. 6a), but was also evident in the absence of such addition (FIG. 6b). […] To ensure that the viral TK promoter background was not contributing to our evaluation, the inventors cloned the mouse RANKL promoter (−100 to +65) into pGL3, inserted RL D5 and evaluated its activity in ST2 cells as well.
Based upon the above data, the inventors explored the possibility that similar to 1,25(OH)2D3, forskolin, PGE2 and OSM might be capable of activating transcription via the D5 fragment of the RANKL gene. […] Cells were harvested 24 hours later and evaluated for luciferase activity as in the previous experiments. […]

[2] = system: RANKL gene upstream regions D1-D5; test: ChIP analysis of transcription factor binding to the RANKL gene in ST2 cells; conditions: 6 hours
Description: FIG. 4. Confirmation of ChIP/chip data using ChIP. A) Linear arrangement of RANKL locus re-oriented 5′ to 3′ (left to right) indicating the positions of D5 to D1, P2, and P1/TSS. Designation of primer sets used for detection in ChIP is indicated. B) ST2 cells were treated with either vehicle or 1,25(OH)2D3 and then subjected to ChIP using antibodies to VDR, RXR or IgG. Precipitated DNA was evaluated using the primer sets identified in A.
FIG. 5. […] ST2 cells were treated with the above hormones and after 6 hours subjected to ChIP analysis using antibodies to VDR, RXR, GR, C/EBP, β, RNA pol II, and IgG. Precipitated DNA was evaluated for enrichment of the indicated regions of the RANKL gene.
FIG. 10. ChIP analysis of transcription factor binding to RL D5, the TSS and intervening regions of the RANKL locus in response to 1,25(OH)2D3, forskolin and oncostatin M (OSM). ST2 cells were treated for 6 hr with the indicated inducing agents and then subjected to ChIP analysis using antibodies to the indicated factors. Precipitated DNA was analyzed by PCR for enrichment of IS7, D5, IS6 and the TSS of the RANKL gene locus. See text for details of results.
The isolated DNA was then evaluated by PCR using primers as depicted in the diagram seen in FIG. 4a which were designed to amplify small DNA segments within the 5 regions as well as segments located at intervening sites (IS) outside the five regions.
The inventors hypothesized that GC's might perhaps enhance VDR binding to RANKL regulatory regions. […] The inventors focused on the RL-CCL region (D5) and amplified the precipitated DNA using primers to this region of the gene as well as to D4, D3 and TSS and intervening regions. […] The inventors also explored the possibility that C/EBPbeta might similarly participate in the RANKL activation process. C/EBPbeta plays a significant role in the regulation of osteoblastic genes, and is found associated with both 1,25(OH)2D3 and GC target genes.
In addition to 1,25(OH)2D3 and GCs, RANKL expression is also known to be modulated by such factors as PTH, PGE2, the gp130-activating cytokines IL-6 and OSM, as well as IL-1beta and TNFalpha. […] Forskolin was used as substitute for PTH, however, as ST2 cells are deficient in PTH receptor (PTHR). Both PTH/forskolin and PGE2 are known to induce RANKL gene expression via CREB whereas OSM functions via Stat3. […] The inventors therefore explored the possibility that the RL-CCL might represent a focal target for these inducers via either CREB or Stat3 in the RANKL gene locus. ST2 cells were treated with either vehicle, 1,25(OH)2D3, forskolin or OSM for a 6 hour period and then subjected to a ChIP analysis using antibodies to VDR, C/EBPbeta, CREB, phospho-CREB, ATF-2, ATF-4, Stat3, RNA pol II and control IgG. Isolated DNA was then subjected to amplification using primers corresponding to the D5 region (RL-CCL) of the RANKL gene. As controls, the inventors also assessed the extent to which the immunoprecipitations led to the enrichment of DNA at sites surrounding the D5 region of the RANKL gene.

Compound | RANKL transcripts (RANKL) | luciferase activity via D5 (RL-CCL), TK promoter [1] | CREB binding to the D5 region [2] | Stat3 binding to the D5 region [2] | VDR binding to RANKL regulatory regions (D5) ([2]; agent alone) | increase in transcriptional output via mRL-D5 ([1]; OSM 20 ng/ml) [fold]
CCCCC[C@H](O)/C=C/[C@H]1[C@H](O)CC(=O)[C@@H]1C/C=C\CCCC(=O)O [PGE2] | substantial time-dependent increase | not forskolin or PGE2 | – | – | – | –
IL-1beta: cytokine known to induce RANKL expression | substantial time-dependent increase | – | – | – | – | –
TNFalpha | substantial time-dependent increase | – | – | – | – | –
oncostatin M [OSM] | substantial time-dependent increase | responsive | modestly increased CREB association | induces significant binding of Stat3 | no effect on VDR binding | 3
